# Values of other authors in US20070122458A1, “Nicotine and Chocolate Compositions” (priority 2001, published 2007).
# Legend:
# [1] = nasal solution insufflation; smokers and non-smokers; not "sweets"
# [2] = smoker, cigarette smoking
# [3] = intravenous infusion; smokers and non-smokers similarly
smiles,measurement,setting,value
CN1CCCC1c1cccnc1 (stereo not drawn) [nicotine],"perceived taste intensity of dietary ""fat""",[1],significantly reduced
same,time to peak blood levels of nicotine after starting smoking,[2],5 to 10 min
same,increase of the resting metabolic rate,[3],6.5%
